Results: US5616684A, “Cyclic peptides and use thereof” (priority 1991, dated 1997)
Non-standard residues stand in square brackets, D forms with d. Residues, ends and D or L forms follow the SMILES beside them. d(aIle) = CC[C@H](C)[C@@H](N)C(=O)O; dPhg = N[C@@H](C(=O)O)c1ccccc1

Key:
[1] = amide bond; 18-membered ring; HONB ester (HONB/DCC)/TEA; DMF; 5.0 mM; 4 steps
[2] = target: T1, endothelin receptor A (ETA) (Sus scrofa, UniProt Q29010); test: Assay of Affinity for Receptor (1): Binding Activity on ETA Receptor; design: key to Binding Activity on ET Receptor (R. act.) ETA: relative binding activity; reference cyclic pentapeptide = 1.0; conditions: specific activity, binding activity of cyclo[-D-Glu-Ala-D-aIle-Leu-D-Trp-] taken as 1.0; porcine heart membrane fraction, 125I-labeled endothelin-1, 25° C., 1 hour
T1 construct: A membrane fraction prepared from the porcine heart; from tissue; host or cells: porcine heart membrane fraction
T1 sequence (Q29010 21-427): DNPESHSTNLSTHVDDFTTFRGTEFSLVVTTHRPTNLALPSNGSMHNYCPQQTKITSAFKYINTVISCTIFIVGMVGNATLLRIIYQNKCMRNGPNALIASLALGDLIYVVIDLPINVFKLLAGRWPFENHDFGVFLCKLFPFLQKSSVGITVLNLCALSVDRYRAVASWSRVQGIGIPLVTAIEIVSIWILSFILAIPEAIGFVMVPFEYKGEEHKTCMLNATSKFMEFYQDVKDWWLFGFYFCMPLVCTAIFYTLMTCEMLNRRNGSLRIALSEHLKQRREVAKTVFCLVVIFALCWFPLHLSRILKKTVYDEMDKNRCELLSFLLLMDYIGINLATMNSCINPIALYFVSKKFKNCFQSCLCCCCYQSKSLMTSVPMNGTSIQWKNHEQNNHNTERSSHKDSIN
Outline: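 Porcine heart membranes (0.15 mg/ml) incubated with 125I-endothelin-1 and test peptide for 1 h at 25 °C, then diluted with ice-cold buffer and pelleted at 12,000×g; bound radioactivity gamma-counted. Values expressed as specific activity relative to cyclo[-D-Glu-Ala-D-aIle-Leu-D-Trp-] set at 1.0.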

[3] = target: T2, endothelin receptor B (ETB) (Bos taurus, UniProt P28088); test: Assay of Affinity for Receptor (2): Binding Activity on ETB Receptor *1; design: key: relative specific activity, Example 8 compound = 100; conditions: specific activity, binding activity of the compound of Example 8 taken as 100; bovine brain membrane fraction, 125I labeled endothelin-1, 25° C., 1 hour
T2 construct: A membrane fraction prepared from the bovine brain; from tissue; host or cells: bovine brain membrane fraction
T2 sequence (P28088 27-441): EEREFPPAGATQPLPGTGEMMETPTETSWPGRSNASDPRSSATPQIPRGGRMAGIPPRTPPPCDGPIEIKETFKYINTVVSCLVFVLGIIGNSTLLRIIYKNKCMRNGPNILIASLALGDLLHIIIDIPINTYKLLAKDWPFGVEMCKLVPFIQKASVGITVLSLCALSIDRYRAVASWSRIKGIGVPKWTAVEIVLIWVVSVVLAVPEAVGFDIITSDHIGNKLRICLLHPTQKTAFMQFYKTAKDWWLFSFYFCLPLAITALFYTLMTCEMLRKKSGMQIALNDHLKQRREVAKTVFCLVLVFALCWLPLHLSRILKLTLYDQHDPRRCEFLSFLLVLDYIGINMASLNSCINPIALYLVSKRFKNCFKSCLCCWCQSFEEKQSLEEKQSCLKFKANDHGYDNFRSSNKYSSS
Protocol: Assay of Affinity for Receptor (2) . . . Binding Activity on ETB Receptor *1
A membrane fraction prepared from the bovine brain was diluted to 0.15 mg/ml by using a buffer solution for assay, and 100 μl of the resulting suspension of the membrane fraction was poured into each assay tube to use for assay. To this suspension of the membrane fraction was added 2 μl of 5 nM ^125 I labeled endothelin-1 solution. Further, 3 μl of a test peptide solution was added thereto, followed by incubation at a temperature of 25° C. for 1 hour. Then, the resulting suspension was diluted with 900 μl of the buffer solution for assay cooled with ice, and thereafter separated into a supernatant and a precipitate by centrifugation at 12,000×g for 10 minutes. Cell membranes and an endothelin receptor B (ETB) embedded therein were contained in the precipitate, and radioactive iodine-labeled endothelin bound to the receptor was also recovered in the precipitate. Accordingly, the amount of radioactive iodine-labeled endothelin bound to the endothelin receptor B (ETB) was determined by measuring the amount of radioactive iodine contained in the precipitate with a gamma-ray counter. The numerical value of ETB shown in Table 1 is the value of specific activity, taking the binding activity of the compound of Example 8 on the receptor B as 100.

[4] = tested on: ETB receptor (guinea pig kidney crude receptor membrane fraction); test: ETB Radio Receptor Assay *2; format: binding; conditions: relative activity (Example 8 given as 100), 125I-endothelin-1, 37° C., 90 minutes
Outline: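 Crude membranes from guinea pig kidney (2.1 μg protein) incubated with 740 Bq ^125I-endothelin-1 and test sample, 90 min at 37 °C, in 50 mM Tris-HCl pH 7.4 with 0.1 mM PMSF, 1 mM EDTA, 0.2% BSA. Bound ligand separated by fast filtration and counted by gamma counter.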

## cyclo[-D-Asp-Trp-Asp-D-tLeu-Leu-D-Trp-]
[1]
  ring closure, yield after HPLC: 42.8%

## CC(C)C[C@@H]1NC(=O)[C@@H](CC(C)C)NC(=O)[C@@H]2CCCN2C(=O)[C@H](Cc2c[nH]c3ccccc23)NC(=O)[C@@H](CC(=O)O)NC(=O)[C@@H](Cc2c[nH]c3ccccc23)NC1=O [Example 36, Cyclo[--D--Asp--Trp--Pro--D--Leu--Leu--D--Trp--]] (cyclo(L[dW][dD]WP[dL]))
[2]
  Binding Activity on ET Receptor (R. act.) ETA: 17
[3]
  Binding Activity on ET Receptor (R. act.) ET8 *1: 40
[4]
  Binding Activity on ET Receptor (R. act.) ET8 *2: 42

## CC(C)C[C@@H]1NC(=O)[C@@H](c2ccccc2)NC(=O)[C@H](CC(=O)O)NC(=O)[C@H](Cc2c[nH]c3ccccc23)NC(=O)[C@@H](CC(=O)O)NC(=O)[C@@H](Cc2c[nH]c3ccccc23)NC1=O [Example 45, Cyclo[--D--Asp--Trp--Asp--D--Phg--Leu--D--Trp--]] (cyclo(D[dPhg]L[dW][dD]W))
[2]
  Binding Activity on ET Receptor (R. act.) ETA: 87
[3]
  Binding Activity on ET Receptor (R. act.) ET8 *1: 74
[4]
  Binding Activity on ET Receptor (R. act.) ET8 *2: 180

## CC(C)C[C@@H]1NC(=O)[C@@H](C(C)C)NC(=O)[C@H](CC(=O)O)NC(=O)[C@H](Cc2c[nH]c3ccccc23)NC(=O)[C@@H](CC(=O)O)NC(=O)[C@@H](Cc2c[nH]c3ccccc23)NC1=O [Example 52, Cyclo[--D--Asp--Trp--Asp--D--Val--Leu--D--Trp--]] (cyclo(D[dV]L[dW][dD]W))
[2]
  Binding Activity on ET Receptor (R. act.) ETA: 75
[3]
  Binding Activity on ET Receptor (R. act.) ET8 *1: 240
[4]
  Binding Activity on ET Receptor (R. act.) ET8 *2: 100

## CC(C)C[C@@H]1NC(=O)[C@@H](Cc2ccccc2)NC(=O)[C@H](CC(=O)O)NC(=O)[C@H](Cc2c[nH]c3ccccc23)NC(=O)[C@@H](CC(=O)O)NC(=O)[C@@H](Cc2c[nH]c3ccccc23)NC1=O [Example 60, Cyclo[--D--Asp--Trp--Asp--D--Phe--Leu--D--Trp--]] (cyclo(D[dF]L[dW][dD]W))
[2]
  Binding Activity on ET Receptor (R. act.) ETA: 1
[3]
  Binding Activity on ET Receptor (R. act.) ET8 *1: 210
[4]
  Binding Activity on ET Receptor (R. act.) ET8 *2: 44

## CC(C)C[C@@H]1NC(=O)[C@@H](CC(C)C)NC(=O)[C@H](CC(=O)O)NC(=O)[C@@H]2CCCN2C(=O)[C@@H](CC(=O)O)NC(=O)[C@@H](Cc2c[nH]c3ccccc23)NC1=O [Example 9, cyclo[-D-Asp-Pro-Asp-D-Leu-Leu-D-Trp-]] (cyclo(D[dL]L[dW][dD]P))
[2]
  Binding Activity on ET Receptor (R. act.) ETA: 56
[3]
  Binding Activity on ET Receptor (R. act.) ET8 *1: 140
[4]
  Binding Activity on ET Receptor (R. act.) ET8 *2: 67

## CC(C)C[C@H]1NC(=O)[C@H](CC(=O)O)NC(=O)[C@H](C)NC(=O)[C@@H](CC(=O)O)NC(=O)[C@@H](Cc2c[nH]c3ccccc23)NC(=O)[C@H](Cc2c[nH]c3ccccc23)NC1=O [Example 58, Cyclo[--D--Asp--Ala--Asp--D--Leu--Trp--D--Trp--]] (cyclo(AD[dL]W[dW][dD]))
[2]
  Binding Activity on ET Receptor (R. act.) ETA: 0.7
[3]
  Binding Activity on ET Receptor (R. act.) ET8 *1: 6.7
[4]
  Binding Activity on ET Receptor (R. act.) ET8 *2: 22

## CC(C)C[C@@H]1NC(=O)[C@@H](CC(C)C)NC(=O)[C@H](CO)NC(=O)[C@H](Cc2c[nH]c3ccccc23)NC(=O)[C@@H](CC(=O)O)NC(=O)[C@@H](Cc2c[nH]c3ccccc23)NC1=O [Example 37, Cyclo[--D--Asp--Trp--Ser--D--Leu--Leu--D--Trp--]] (cyclo(L[dW][dD]WS[dL]))
[2]
  Binding Activity on ET Receptor (R. act.) ETA: 24
[3]
  Binding Activity on ET Receptor (R. act.) ET8 *1: 22
[4]
  Binding Activity on ET Receptor (R. act.) ET8 *2: 18

## CC[C@H](C)[C@H]1NC(=O)[C@H](CC(=O)O)NC(=O)[C@H](Cc2c[nH]c3ccccc23)NC(=O)[C@@H](CC(=O)O)NC(=O)[C@@H](Cc2c[nH]c3ccccc23)NC(=O)[C@H](CC(C)C)NC1=O [Example 51, Cyclo[--D--Asp--Trp--Asp--D--aIle--Leu--D--Trp--]] (cyclo(D[d(aIle)]L[dW][dD]W))
[2]
  Binding Activity on ET Receptor (R. act.) ETA: 100
[3]
  Binding Activity on ET Receptor (R. act.) ET8 *1: 210
[4]
  Binding Activity on ET Receptor (R. act.) ET8 *2: 290

## cyclo[-D-Asp-Glu(Bzl)-Asp-D-Thg(2)-Leu-D-Trp-] [Example 89]
[2]
  Binding Activity on ET Receptor (R. act.) ETA: 750
[3]
  Binding Activity on ET Receptor (R. act.) ET8 *1: 45
[4]
  Binding Activity on ET Receptor (R. act.) ET8 *2: 71
